Data reported in patent US6060471A, “Reduction of hair growth” (priority 1998, dated 2000).
Where two headings read alike, the source gives them in different places.

Tests used:
[1] = system: flank organs of Golden Syrian hamsters (hair growth); test: Golden Syrian hamster assay (flank organ hair mass); format: in vivo; settings: for inhibition in vivo at 10 %: read-out: % Inhibition (hair mass)
Text: Male intact Golden Syrian hamsters are considered acceptable models for human beard hair growth in that they display oval shaped flank organs, one on each side, each about 8 mm. in major diameter, which grow thick black and coarse hair similar to human beard hair. These organs produce hair in response to androgens in the hamster. To evaluate the effectiveness of a composition including an inhibitor of the hypusine biosynthetic pathway, the flank organs of each of a group of hamsters are depilated by applying a thioglycolate based chemical depilatory (Surgex) and/or shaved. To one organ of each animal 10 μl. of vehicle alone once a day is applied, while to the other organ of each animal an equal amount of vehicle containing an inhibitor of the hypusine biosynthetic pathway is applied. After thirteen applications (one application per day for five days a week), the flank organs are shaved and the amount of recovered hair (hair mass) from each is weighed. Percent-reduction of hair growth is calculated by subtracting the hair mass (mg) value of the test compound treated side from the hair mass value of the vehicle treated side; the delta value obtained is then divided by the hair mass value of the vehicle treated side, and the resultant number is multiplied by 100.
The above-described assay will be referred to herein as the "Golden Syrian hamster" assay.
This vehicle also was used in the testing described below.

[2] = system: 18 kD human hair follicle protein (eIF-5A); test: Incorporation of 3H-spermidine into 18 kD human hair follicle proteins; format: cell-based; settings: inhibitor 0.2 mM, follicles cultured 48 hours, 3H-spermidine 6 hours; for % Reduction of 3H-spermidine incorporation: 2880 min, 200 µM
Description: Human hair follicles derived from face lift procedures were isolated and placed in Williams E medium containing antibiotics, glutamine, insulin and hydrocortisone. Follicles were cultured for 48 hours at 37° C. in the presence of 1,6-diaminohexane (0.2 mM), 1,8-diaminooctane (0.2 mM), ciclopiroxolamine (0.2 mM) or hydralazine (0.2 mM). Control follicles were maintained in Williams E without any inhibitors present. At the end of the 48 hour period, ^3 H-spermidine […] was added to the culture for 6 hours. The hair follicles were washed in phosphate buffered saline to remove nonincorporated ^3 H-spermidine, and the follicles were homogenized in a buffer, pH 7.4, containing Tris (50 mM) and sucrose (0.5 mM). Hair follicle protein was applied to a 10% polyacrylamide gel. After the proteins were separated on the gel using a constant voltage (125 V), they were stained with coomassie blue. […] The protein bands were cutout of the gel and solubilized with BTS-450 (Beckman). The liquid scintillation fluid Econoscint (12 mL) was added to each sample, which was analyzed for ^3 H-spermidine incorporation by scintillation spectrometry.

[3] = Table I, dose 10%, topical, 13 applications, pH per compound 6.0-8.5
[4] = Mesocricetus auratus, Table I, dose 10%, topical, 13 applications, pH per compound 6.0-8.5

| SMILES | Hair Mass, Treated [1, 3] | Incorporation of 3H-spermidine [2] | % Reduction of 3H-spermidine incorporation [2] | inhibition in vivo at 10 % [1, 4] | also measured |
| --- | --- | --- | --- | --- | --- |
| NCCCCCCN [1,6-Diaminohexane, 1,6-diaminohexane] | 1.50 ± .20 mq | < 1.0 pmol/mg protein | 100% |  | inhibition in vivo at 10 % ([1]; Mesocricetus auratus, topical): 51 ± 5%; % Reduction of 3H-spermidine incorporation ([2]; listed as 1,6-diaminohexane): 47-100% |
| NCCCCCCCN [1,7-Diaminoheptane, 1,7-diaminoheptane] | 0.80 ± .11 mq |  |  | 67 ± 4% |  |
| NCCCCCCCCN [1,8-Diaminooctane, 1,8-diaminooctane] | 0.70 ± .12 mq | < 1.0 pmol/mg protein | 100% | 74 ± 6% | inhibition in vivo at 2 % ([1]; Mesocricetus auratus, topical, Table II, dose 2%, pH 9.0): 24 ± 8%; inhibition in vivo at 5 % ([1]; Mesocricetus auratus, topical, Table II, dose 5%, pH 9.0): 48 ± 10%; inhibition in vivo at 10 % ([1]; Mesocricetus auratus, topical, Table II, dose 10%, pH 8.0): 74 ± 6%; Hair Mass, Treated ([1]; Table II, dose 2%, pH 9.0): 1.88 ± .25 mg; Hair Mass, Treated ([1]; Table II, dose 5%, pH 9.0): 1.86 ± .37 mg; Hair Mass, Treated ([1]; Table II, dose 10%, pH 8.0): 0.70 ± .12 mg; % Reduction of 3H-spermidine incorporation ([2]; listed as 1,8-diaminooctane): 47-100% |
| NCCCCCCCCCN [1,9-Diaminononane, 1,9-diaminononane] | 1.27 ± .56 mq |  |  | 50 ± 13% |  |
| NCCCCCN [Cadaverine, cadaverine] | 1.91 ± .15 mq |  |  | 43 ± 4% |  |
| Cc1cc(C2CCCCC2)n(O)c(=O)c1 [Ciclopiroxolamine, ciclopiroxolamine] |  | < 1.0 pmol/mg protein | 100% |  | inhibition in vivo at 10 % ([1]; Mesocricetus auratus, topical, Table III, dose 10%, pH 9.0): 44%; % Inhibition (hair mass) ([1]; Table III, dose 10%, pH 9.0): 44 ± 17%; Hair Mass, Treated ([1]; Table III, dose 10%, pH 9.0): 0.92 ± .21 mg; % Reduction of 3H-spermidine incorporation ([2]; listed as ciclopiroxolamine): 47-100% |
| NNc1nncc2ccccc12 [Hydralazine, hydralazine] |  | 10.3 pmol/mg protein | 47% |  | inhibition in vivo at 5 % ([1]; Mesocricetus auratus, topical, Table III, dose 5%, pH 5.0): 33%; % Inhibition (hair mass) ([1]; Table III, dose 5%, pH 5.0): 33 ± 7%; Hair Mass, Treated ([1]; Table III, dose 5%, pH 5.0): 1.38 ± .14 mg; inhibition at 200 µM ([2]; Homo sapiens, 48 h, read-out: % Reduction of 3H-spermidine incorporation): 47 to 100% |
| NCCCCN(CCCN)Cc1ccccc1 [N^4 -Benzylspermidine, N^4 -benzyl-spermidine] | 1.05 ± .12 mq |  |  | 62 ± 4% |  |
